Laboratory results published in ChEMBL document CHEMBL1146835, “Aspermytin A: a new neurotrophic polyketide isolated from a marine-derived fungus of the genus Aspergillus” (2004).

System: PC-12
Test: Neurotrophic effect on rat pheochromocytoma (PC-12) cells was expressed as percent cells with neurites after 2 days treatment with 50 uM of compound
Assay type: functional

C[C@H]1CCC2[C@@H](C=C[C@@](C)(O)[C@]2(C)C(=O)CCO)C1 (stereo partly specified)
Cells: >50%
